Measured values: US12344600B2, “c-Myc mRNA translation modulators and uses thereof in the treatment of cancer” (Anima Biotech Inc., priority 2022, dated 2025)

What follows are compounds tested on c-Myc (assay: c-Myc immunofluorescence assay). Settings: A549 cells, 24 hours, anti-c-Myc immunofluorescence.
Assay type: cell-based, human
Experimental: A549 human non-small cell lung carcinoma cells were treated for 24 hours with increasing compound concentration, cells were fixed and stained with a nuclei stain (DAPI) and anti-c-Myc fluorescent antibody. The c-Myc signal was quantified by image analysis, and data was exported and analyzed using TIBCO Spotfire® (TIBCO Corporation). Dose response curves were generated and fitted with logaristic regression to calculate potency (EC50 values). Potency values are presented in Table 2 for all compounds and are shown for selected compounds (FIG. 3).
A549 cells were grown in 384-wells plates (Perkin Elmer, Cat. 6057300) for 48 hours, treated with compounds and then fixed for 20 min in 4% paraformaldehyde. After that permeabilization was done using 0.1% Triton X-100 in PBS for 20 min. Primary anti-c-Myc antibody (Abcam, ab32072) staining was performed for 90 min at room temperature. Cells then were washed twice with PBS and incubated with secondary antibody (Abcam, ab150075) for 90 min at room temperature. Nuclei were stained with DAPI for 10 min and washed twice with PBS.
Cell images were taken with Operetta (Perkin Elmer, USA), a wide-field fluorescence microscope at 20× magnification. After acquisition, the images were transferred to Columbus software (Perkin-Elmer) for image analysis. In Columbus, cells were identified by their nucleus, using the “Find Nuceli” module and cytoplasm was detected based on the secondary antibody channel. Subsequently, the fluorescent signal was enumerated in the identified cell region. Then data was exported to a data analysis and visualization software, Tibco Spotfire, USA.

Row | Structure (SMILES) | Myc Efficacy (−LogEC50)
1 | COc1ccc(-c2noc(N3CCC(C(=O)NCc4cccc(OC(C)C)c4)CC3)n2)cc1 [Compound 300, N-(3-isopropoxybenzyl)-1-(3-(4-methoxyphenyl)-1,2,4-oxadiazol-5-yl)piperidine-4-carboxamide] | ++ (++ ≥5 and <6)
2 | COc1ccc(-c2noc(N3CCC(C(=O)N4CCCC4)CC3)n2)cc1 [Compound 109, (1-(3-(4-methoxyphenyl)-1,2,4-oxadiazol-5-yl)piperidin-4-yl)(pyrrolidin-1-yl)methanone] | + (+ >3 and <5)
3 | COc1ccc(-c2noc(N3CCC(C(=O)NC4CCOCC4)CC3)n2)cc1 [Compound 254, 1-(3-(4-methoxyphenyl)-1,2,4-oxadiazol-5-yl)-N-(tetrahydro-2H-pyran-4-yl)piperidine-4-carboxamide] | + (+ >3 and <5)
4 | COc1ccc(-c2noc(N3CCC(C(=O)NC(C)Cc4ccccn4)CC3)n2)cc1 (centres unmarked) [Compound 263, 1-(3-(4-methoxyphenyl)-1,2,4-oxadiazol-5-yl)-N-(1-(pyridin-2-yl)propan-2-yl)piperidine-4-carboxamide] | − (− ≤3)
5 | COc1ccc(-c2noc(N3CCC(C(=O)NCC4CCN(Cc5cc(C)ccn5)C4)CC3)n2)cc1 (centres unmarked) [Compound 326, 1-(3-(4-methoxyphenyl)-1,2,4-oxadiazol-5-yl)-N-((1-((4-methylpyridin-2-yl)methyl)pyrrolidin-3-yl)methyl)piperidine-4-carboxamide] | ++ (++ ≥5 and <6)
6 | COc1ccc(-c2noc(N3CCC(C(=O)NCC4CCN(Cc5cccc(O)c5)C4)CC3)n2)cc1 (centres unmarked) [Compound 390, N-((1-(3-hydroxybenzyl)pyrrolidin-3-yl)methyl)-1-(3-(4-methoxyphenyl)-1,2,4-oxadiazol-5-yl)piperidine-4-carboxamide] | ++ (++ ≥5 and <6)
7 | COc1ccc(-c2noc(N3CCC(C(=O)NC4(C5CC5)CCOCC4)CC3)n2)cc1 [Compound 291, N-(4-cyclopropyltetrahydro-2H-pyran-4-yl)-1-(3-(4-methoxyphenyl)-1,2,4-oxadiazol-5-yl)piperidine-4-carboxamide] | + (+ >3 and <5)
8 | CNC(=O)C1CCN(c2nc(-c3ccc(OC)cc3)no2)CC1 [Compound 137, 1-(3-(4-methoxyphenyl)-1,2,4-oxadiazol-5-yl)-N-methylpiperidine-4-carboxamide] | + (+ >3 and <5)
9 | COc1ccc(-c2noc(N3CCC(C(=O)NCC4CCN(Cc5ccncc5F)C4)CC3)n2)cc1 (centres unmarked) [Compound 359, N-((1-((3-fluoropyridin-4-yl)methyl)pyrrolidin-3-yl)methyl)-1-(3-(4-methoxyphenyl)-1,2,4-oxadiazol-5-yl)piperidine-4-carboxamide] | ++ (++ ≥5 and <6)
10 | COc1ccc(-c2noc(N3CCC(C(=O)NC[C@H]4CCCN4C)CC3)n2)cc1 [Compound 252, (R)-1-(3-(4-methoxyphenyl)-1,2,4-oxadiazol-5-yl)-N-((1-methylpyrrolidin-2-yl)methyl)piperidine-4-carboxamide] | + (+ >3 and <5)
11 | CN1CCC[C@@H](CN2CC[C@H](CNC(=O)C3CCN(c4nc(-c5ccc(Cl)cc5)no4)CC3)C2)C1 [Compound 475, 1-(3-(4-chlorophenyl)-1,2,4-oxadiazol-5-yl)-N-(((R)-1-(((R)-1-methylpiperidin-3-yl)methyl)pyrrolidin-3-yl)methyl)piperidine-4-carboxamide] | ++ (++ ≥5 and <6)
12 | COc1ccc(-c2noc(N3CCC(C(=O)NCC4CCN(Cc5cccnc5C)C4)CC3)n2)cc1 (centres unmarked) [Compound 380, 1-(3-(4-methoxyphenyl)-1,2,4-oxadiazol-5-yl)-N-((1-((2-methylpyridin-3-yl)methyl)pyrrolidin-3-yl)methyl)piperidine-4-carboxamide] | ++ (++ ≥5 and <6)
13 | COc1ccc(-c2noc(N3CCC(C(=O)NCc4ccc(OC)c(C(F)(F)F)c4)CC3)n2)cc1 [Compound 308, N-(4-methoxy-3-(trifluoromethyl)benzyl)-1-(3-(4-methoxyphenyl)-1,2,4-oxadiazol-5-yl)piperidine-4-carboxamide] | + (+ >3 and <5)
14 | O=C(C1CCN(c2nc(-c3ccccc3Cl)no2)CC1)N1CCOCC1 [Compound 164, (1-(3-(2-chlorophenyl)-1,2,4-oxadiazol-5-yl)piperidin-4-yl)(morpholino)methanone] | − (− ≤3)
15 | COc1ccc(-c2noc(N3CCC(C(=O)NCC4CCOC4)CC3)n2)cc1 (centres unmarked) [Compound 255, 1-(3-(4-methoxyphenyl)-1,2,4-oxadiazol-5-yl)-N-((tetrahydrofuran-3-yl)methyl)piperidine-4-carboxamide] | + (+ >3 and <5)
16 | Cc1ccc(CN2CCC(CNC(=O)C3CCN(c4nc(-c5ccc(O)cc5)no4)CC3)C2)cc1 (centres unmarked) [Compound 170, 1-(3-(4-hydroxyphenyl)-1,2,4-oxadiazol-5-yl)-N-((1-(4-methylbenzyl)pyrrolidin-3-yl)methyl)piperidine-4-carboxamide] | + (+ >3 and <5)
17 | Cc1ccc(CN2CCC(CNC(=O)N3CCN(c4nc(-c5ccc(OCC(O)CO)cc5)no4)CC3)C2)cc1 (centres unmarked) [Compound 473, 4-(3-(4-(2,3-dihydroxypropoxy)phenyl)-1,2,4-oxadiazol-5-yl)-N-((1-(4-methylbenzyl)pyrrolidin-3-yl)methyl)piperazine-1-carboxamide] | + (+ >3 and <5)
18 | COc1ccc(-c2noc(N3CCC(C(=O)NCC4CCN(Cc5ccsc5)C4)CC3)n2)cc1 (centres unmarked) [Compound 357, 1-(3-(4-methoxyphenyl)-1,2,4-oxadiazol-5-yl)-N-((1-(thiophen-3-ylmethyl)pyrrolidin-3-yl)methyl)piperidine-4-carboxamide] | ++ (++ ≥5 and <6)
19 | COc1ccc(-c2noc(N3CCC(C(=O)NCC4CCN(C)CC4)CC3)n2)cc1 [Compound 217, 1-(3-(4-methoxyphenyl)-1,2,4-oxadiazol-5-yl)-N-((1-methylpiperidin-4-yl)methyl)piperidine-4-carboxamide] | − (− ≤3)
20 | O=C(NCCCN1CCC(Cc2ccccn2)CC1)N1CCN(c2nc(-c3ccc(Cl)cc3)no2)CC1 [Compound 458, 4-(3-(4-chlorophenyl)-1,2,4-oxadiazol-5-yl)-N-(3-(4-(pyridin-2-ylmethyl)piperidin-1-yl)propyl)piperazine-1-carboxamide] | +++ (+++ ≥6)
21 | COc1ccc(-c2noc(N3CCC(C(=O)NCC4CCN(CCC(C)C)C4)CC3)n2)cc1 (centres unmarked) [Compound 411, N-((1-isopentylpyrrolidin-3-yl)methyl)-1-(3-(4-methoxyphenyl)-1,2,4-oxadiazol-5-yl)piperidine-4-carboxamide] | ++ (++ ≥5 and <6)
22 | O=C(NCCCN1CCC(Cc2ccccc2F)CC1)N1CCN(c2nc(-c3ccc(OC(F)F)cc3)no2)CC1 [Compound 438, 4-(3-(4-(difluoromethoxy)phenyl)-1,2,4-oxadiazol-5-yl)-N-(3-(4-(2-fluorobenzyl)piperidin-1-yl)propyl)piperazine-1-carboxamide] | +++ (+++ ≥6)
23 | COc1ccc(-c2noc(N3CCC(C(=O)NCC4CCN(CC5CC5)C4)CC3)n2)cc1 (centres unmarked) [Compound 220, N-((1-(cyclopropylmethyl)pyrrolidin-3-yl)methyl)-1-(3-(4-methoxyphenyl)-1,2,4-oxadiazol-5-yl)piperidine-4-carboxamide] | + (+ >3 and <5)
